Here are results for ten compounds from ChEMBL document CHEMBL1201862, “PubChem BioAssay data set” (2004).

Holding throughout (assay): inhibition of tumour cell growth, NCI panel, 48 h
For test [1], the system named is HOP-62.
The subject of test [2] is RXF 393.
Test [3] relates to MOLT-4.
Test [4] concerns UACC-257.
The subject of test [5] is NCI-H226.
Test [6] has as its system NCI/ADR-RES.
Test [7] concerns SNB-75.
Test [8] relates to SN12C.
The test system of test [9] is COLO 205.
Test [10] relates to SK-MEL-5.
For test [11], the system named is SF-539.
For test [12], the system named is U-251.
Test [13] deals with A549.
Test [14] relates to NCI-H522.
Test [15] relates to 786-0.
The subject of test [16] is SK-MEL-28.
Test [17] has as its system NCI-H23.
In test [18] the test system is UO-31.
The subject of test [19] is HOP-92.
The test system of test [20] is MDA-MB-231.

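The compound was tested at five concentrations on cells cultured in 96-well plates, with a 48-hour exposure period. The concentration for 50% growth inhibition is given as GI50.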 Active and inactive are the calls of the source. Rule as the data show it: active = GI50 up to about 1.1 µM and inactive = higher.

Take `Cc1cc(-c2nc3cc(F)ccc3s2)ccc1NC(=O)C(C)N` (configuration not stated): the GI50 was 3.97 µM (inactive) in test [1]; 3.75 µM (inactive) in test [2]; 3.33 µM (inactive) in test [3]; 4.31 µM (inactive) in [4]; > 25 µM (inactive) in test [5]; 4.79 µM (inactive) in test [6]. The GI50 was 5.05 µM (inactive) in test [7]; 4.32 µM (inactive) in [8]; 9.23 µM (inactive) in test [9]; 9.84 µM (inactive) in [10]; 10.4 µM (inactive) in test [11]; 4.36 µM (inactive) in [12]. In addition, the GI50 in test [13] is 3.77 µM (inactive); in test [14], 4.09 µM (inactive); in [15], 3.76 µM (inactive); in [16], 5.25 µM (inactive); in [17], 2.67 µM (inactive); in test [18], 3.7 µM (inactive). In addition, the results for the GI50 in [19] and in test [20] were 3.97 µM (inactive) and 3.77 µM (inactive), respectively.
Turning to `Clc1cc(Cl)cc(/N=C/C=C/Nc2cc(Cl)cc(Cl)c2)c1`, the GI50 was 23.7 µM (inactive) in test [1]; 17.3 µM (inactive) in test [2]; 19.8 µM (inactive) in test [3]; 33.7 µM (inactive) in test [4]; 14.4 µM (inactive) in test [5]; 16.4 µM (inactive) in test [6]. The GI50 was 13.1 µM (inactive) in test [7]; 17.4 µM (inactive) in [8]; 16.5 µM (inactive) in [9]; 15.1 µM (inactive) in [10]; 21.6 µM (inactive) in test [11]; 17.6 µM (inactive) in test [12]. Further, the GI50 is 18.3 µM (inactive) in test [13]; 14.7 µM (inactive) in test [14]; 17.3 µM (inactive) in test [15]; 25.3 µM (inactive) in test [16]; 14.2 µM (inactive) in test [17]; 23.4 µM (inactive) in [18]. The GI50 in [19] was 30.8 µM (inactive); in [20], 14.2 µM (inactive).
For `Cc1ccc(C(=N)c2ccccc2Cc2cccc3ccccc23)c2ccccc12`, the GI50 was > 100 µM (inactive) in test [1]; > 100 µM (inactive) in test [2]; 58.7 µM (inactive) in test [3]; 33.1 µM (inactive) in [4]; > 100 µM (inactive) in test [5]; > 100 µM (inactive) in [6]. Besides, the GI50 in test [7] was > 100 µM (inactive); in test [8], > 100 µM (inactive); in [9], 22.1 µM (inactive); in test [10] it was 31.9 µM (inactive); in [11] it was > 100 µM (inactive); in test [12], > 100 µM (inactive). Also, the GI50 was 54.3 µM (inactive) in test [13]; 56.5 µM (inactive) in [14]; > 100 µM (inactive) in test [15]; > 100 µM (inactive) in test [16]; 95.3 µM (inactive) in test [17]; 44.8 µM (inactive) in [18]. The GI50 in test [19] and in test [20] was > 100 µM (inactive) throughout.
In the case of `NC1CC(=O)c2sccc21` (configuration not stated), the GI50 is > 100 µM (inactive) in test [1]; 29.6 µM (inactive) in test [2]; > 100 µM (inactive) in [3]; > 100 µM (inactive) in test [4]; > 100 µM (inactive) in test [5]; > 100 µM (inactive) in test [6]. The GI50 in [7], in test [8], in [9], in [10], in test [11] and in test [12] was > 100 µM (inactive) throughout. The GI50 in test [13], in test [14], in [15], in test [16], in test [17] and in test [18] was > 100 µM (inactive) each time. The GI50 in test [19] and in [20] was > 100 µM (inactive) each time.
For the compound `COc1ccc(NC(=O)CC(=O)n2nc(-c3ccccc3)c(/N=N/c3ccc(C)cc3)c2-c2ccccc2)cc1`, the GI50 in [1] was 10.4 µM (inactive); in test [2], 19.1 µM (inactive); in test [3], > 95.9 µM (inactive); in test [4], 57.8 µM (inactive); in test [5] it was 21.7 µM (inactive); in [6], 25.7 µM (inactive). The GI50 is 16.4 µM (inactive) in [7]; 38 µM (inactive) in test [8]; > 100 µM (inactive) in test [9]; > 65.2 µM (inactive) in test [10]; 25.4 µM (inactive) in test [11]; 20.8 µM (inactive) in test [12]. Further, the GI50 in test [13] is 44 µM (inactive); in [14] it was 29 µM (inactive); in [15], 19.2 µM (inactive); in test [16], > 91.6 µM (inactive); in [17] it was 28.4 µM (inactive); in test [18], 29.3 µM (inactive). For the same compound, the GI50 in [19] is 16.8 µM (inactive); in test [20] it was 25.6 µM (inactive).
In the case of `CCC1C(NC(=O)OC)C(=O)N1[C@@H](C)c1ccccc1` (some centres not stated), the GI50 in test [1], in [2], in [3], in [4], in test [5] and in test [6] was > 100 µM (inactive) in each case. Also, the GI50 in [7] was 82.6 µM (inactive); in [8] it was > 100 µM (inactive); in test [9] it was > 100 µM (inactive); in [10], > 100 µM (inactive); in test [11], > 100 µM (inactive); in test [12] it was > 100 µM (inactive). The GI50 in [14], in test [15], in test [16], in test [17], in [18] and in test [19] was > 100 µM (inactive) in each case. For the same compound, the GI50 in [20] is > 100 µM (inactive).
Consider `Oc1ccc(C(O)(c2ccccc2)c2ccccc2)c2ccccc12`, for which the GI50 in test [1] is 2.3 µM (inactive); in test [2], 3.75 µM (inactive); in [3], 3.14 µM (inactive); in [4] it was 6.85 µM (inactive); in test [5] it was 2.52 µM (inactive); in test [6], 2.1 µM (inactive). The GI50 in test [7] was 4.53 µM (inactive); in test [8], 2.22 µM (inactive); in [9], 3.44 µM (inactive); in test [10] it was 2.67 µM (inactive); in test [11], 2 µM (inactive); in [12] it was 1.45 µM (inactive). Further, the GI50 was 3.27 µM (inactive) in test [13]; 2.42 µM (inactive) in test [14]; 2.02 µM (inactive) in test [15]; 15 µM (inactive) in test [16]; 2.79 µM (inactive) in test [17]; 2.97 µM (inactive) in [18]. For the same compound, the GI50 in [19] is < 0.01 µM (active); in test [20], 1.79 µM (inactive).
As to `C(#C[C@@]12CCC[C@@H]1NCO2)c1ccc2c(c1)OCO2`, the GI50 in [1] is 87.3 µM (inactive); in test [2], 49.3 µM (inactive); in test [3], 22.2 µM (inactive); in test [4], 44.2 µM (inactive); in test [5], > 100 µM (inactive); in test [6], 37.5 µM (inactive). In addition, the GI50 in [7] was 45.1 µM (inactive); in [9] it was 16.9 µM (inactive); in [10], 33.3 µM (inactive); in test [11], 29.3 µM (inactive); in [12] it was 70.5 µM (inactive); in [13], > 100 µM (inactive). In addition, the GI50 is 37.3 µM (inactive) in [14]; 43.7 µM (inactive) in test [15]; 35.6 µM (inactive) in test [16]; > 100 µM (inactive) in [17]; 30.3 µM (inactive) in [18]; 35 µM (inactive) in test [19]. In test [20], the GI50 is > 100 µM (inactive).
As for `COC1C(O)C(C)OC(OC2C(Oc3cccc4c(O)c5c(=O)oc6ccc(C)c7c(=O)oc(c34)c5c67)OC(C)C(O)C2O)C1O` (configuration not stated), the GI50 in [1] is 1.77 µM (inactive); in [2], 1.34 µM (inactive); in [3] it was 0.488 µM (active); in test [4], 2.31 µM (inactive); in test [5] it was 1.35 µM (inactive); in test [6] it was 11.8 µM (inactive). Further, the GI50 in test [7] was 2.49 µM (inactive); in [8], 2.52 µM (inactive); in test [9], 3.41 µM (inactive); in test [10], 1.59 µM (inactive); in [11], 1.51 µM (inactive); in test [12], 0.959 µM (active). Further, the GI50 in [13] was 6.14 µM (inactive); in test [14], 0.871 µM (active); in [15], 0.91 µM (active); in test [16], 1.6 µM (inactive); in test [17], 1.28 µM (inactive); in [18], 4.59 µM (inactive). Further, the GI50 in test [19] was 0.233 µM (active); in test [20], 1.67 µM (inactive).
For the compound `O=C(CCCCCCC(=O)Nc1cccnc1)NO` [PYROXAMIDE], the GI50 in [1] is 7.16 µM (inactive); in test [2], 5.89 µM (inactive); in [3], 2.2 µM (inactive); in test [4] it was 4.75 µM (inactive); in [5] it was 36.3 µM (inactive); in test [6], 1.81 µM (inactive). Also, the GI50 is 18.1 µM (inactive) in test [7]; 2.77 µM (inactive) in test [9]; 1.21 µM (inactive) in [10]; 3.09 µM (inactive) in test [11]; 4.76 µM (inactive) in test [12]; 21.7 µM (inactive) in [13]. Moreover, the GI50 in [14] was 1.26 µM (inactive); in test [15], 7.21 µM (inactive); in test [16], 4.4 µM (inactive); in [17] it was 13 µM (inactive); in test [18] it was 6.5 µM (inactive); in test [19], 12.8 µM (inactive). The GI50 in [20] was > 100 µM (inactive).
